Data taken from US5919768A, “Di- and trivalent small molecule selectin inhibitors” (Texas Biotechnology Corporation, priority 1998, dated 1999).

Columns and labels:
E-selectin = target: T1, E-selectin (Homo sapiens, UniProt P16581); test: Cell-protein assay: inhibition of binding of HL60 cells (expressing sialyl-Lewis^x) to E-selectin; conditions: for IC50: HL60 cell binding to selectin fusion protein on magnetic beads
T1 construct: amino terminal lectin, EGF, and complement regulatory-like repeats (CR) 1 and 2; made in house; host or cells: SF21 insect cells, baculovirus (BakPAK)
T1 sequence (P16581 22-301): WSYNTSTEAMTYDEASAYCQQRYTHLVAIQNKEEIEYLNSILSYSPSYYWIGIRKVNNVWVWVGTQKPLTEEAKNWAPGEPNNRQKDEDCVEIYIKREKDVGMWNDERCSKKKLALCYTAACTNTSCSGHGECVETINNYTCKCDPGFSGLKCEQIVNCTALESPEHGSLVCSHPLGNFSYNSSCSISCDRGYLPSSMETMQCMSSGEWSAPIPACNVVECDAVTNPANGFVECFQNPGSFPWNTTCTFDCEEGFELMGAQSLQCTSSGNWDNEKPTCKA
Description: (§1) Compounds were assayed for their ability to inhibit the binding of E-, P-, and/or L-selectin to sialyl-Lewis^x.
(§2) The E-selectin binding assays involved assessing the ability of HL60 cells that express sialyl-Lewis^x and Lewis^x to purified E-selectin, P-selectin and L-selectin recombinant proteins (cell-protein assay). A similar binding assay utilizing purified glycolipids and purified L-selectin recombinant protein (glycolipid-protein) was used to assess L-selectin binding.
(§3) All selectin fusion cassettes were generated by PCR from the E-selectin cDNA purchased from R&D Systems (Minneapolis, Minn.), and from the P-selectin and L-selectin cDNAs that were PCR cloned from total RNA extracted from human placenta. The mouse IgG cDNA was cloned from PCR amplified cDNA generated from RNA extracted from the hybridoma cell line 402C10. All fusion cassettes were expressed from baculovirus vectors using the BakPAK method and SF21 cells purchased from Clonetech.
(§4) Recombinant fusion proteins were purified from baculovirus infected culture supernatants by immunoprecipitation using Dynal™ goat anti-mouse IgG coated magnetic beads. Mock beads were generated from uninfected SF21 culture supernatants.
(§5) HL60 cells (10^7 cells) were fluorescently labeled with calcein AMC-3099 (Molecular Probes) in RPMI 1640 with 10% fetal calf serum (FCS). The magnetic beads (7 μl, 4×10^6 beads/ml) were incubated in duplicate wells of a flexible 96 well microtiter plate along with 7 μl of compound at various concentrations and 7 μl of calcein-labeled HL60 cells. The plates were incubated for ten minutes at room temperature. The plate was then placed on a magnetic separator and incubated for 2 more minutes. While the assay plate remained on the separator, unbound HL60 cells were removed and the wells were washed twice with phosphate buffered saline (PBS) to remove any remaining unbound cells. The HL60 cells remaining bound to the beads were inspected by microscopy and then lysed by adding […] of a 1% solution of NP40 in PBS. Binding was quantitated fluorimetrically using a Millipore Cytofluor 2350 fluorimeter.

L-selectin = target: T2, L-selectin (Homo sapiens, UniProt P14151); test: Selectin binding assay: inhibition of binding of L-selectin to sialyl-Lewis^x (cell-protein; glycolipid-protein assay also mentioned); conditions: for IC50: in vitro selectin assay
T2 construct: amino terminal lectin, EGF, and complement regulatory-like repeats (CR) 1 and 2; made in house; host or cells: SF21 insect cells, baculovirus (BakPAK)
T2 sequence (P14151 39-318): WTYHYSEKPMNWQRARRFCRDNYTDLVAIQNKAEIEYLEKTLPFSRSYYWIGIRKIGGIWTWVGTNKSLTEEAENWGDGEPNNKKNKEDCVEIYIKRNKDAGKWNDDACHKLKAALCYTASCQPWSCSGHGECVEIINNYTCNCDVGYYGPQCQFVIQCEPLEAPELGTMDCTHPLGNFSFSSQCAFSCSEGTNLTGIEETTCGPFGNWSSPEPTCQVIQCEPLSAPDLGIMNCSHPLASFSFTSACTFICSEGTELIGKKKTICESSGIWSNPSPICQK
Description: as §1, §2, §3, §4, §5

P-selectin = target: T3, P-selectin (Homo sapiens, UniProt P16109); test: Cell-protein assay: inhibition of binding of HL60 cells (expressing sialyl-Lewis^x) to P-selectin; conditions: HL60 cell binding to selectin fusion protein on magnetic beads
T3 construct: amino terminal lectin, EGF, and complement regulatory-like repeats (CR) 1 and 2; made in house; host or cells: SF21 insect cells, baculovirus (BakPAK)
T3 sequence (P16109 42-321): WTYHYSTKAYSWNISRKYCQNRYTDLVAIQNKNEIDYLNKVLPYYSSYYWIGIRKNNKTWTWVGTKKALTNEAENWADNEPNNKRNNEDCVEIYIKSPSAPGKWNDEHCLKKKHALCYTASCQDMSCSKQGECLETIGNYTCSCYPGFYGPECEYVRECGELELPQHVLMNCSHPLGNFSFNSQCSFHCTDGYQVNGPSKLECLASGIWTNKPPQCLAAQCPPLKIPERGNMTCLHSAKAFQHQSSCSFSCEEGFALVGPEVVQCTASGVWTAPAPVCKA
Description: as §1, §2, §3, §4, §5

IC50 (E-selectin) [µM] | IC50 (L-selectin) [µM] | IC50 (P-selectin) [µM] | further results | SMILES
700 | 500 | 200 | – | O=C(O)Cc1cccc(-c2cc(Cc3cc(Cc4ccc(O[C@H]5O[C@H](CO)[C@@H](O)[C@H](O)[C@@H]5O)c(-c5cccc(CC(=O)O)c5)c4)cc(Cc4ccc(O[C@H]5O[C@H](CO)[C@@H](O)[C@H](O)[C@@H]5O)c(-c5cccc(CC(=O)O)c5)c4)c3)ccc2O[C@H]2O[C@H](CO)[C@@H](O)[C@H](O)[C@@H]2O)c1 [H]
400 | 300 | 300 | – | O=C(O)Cc1cccc(-c2cc(CCCCCc3ccc(O[C@H]4O[C@H](CO)[C@@H](O)[C@H](O)[C@@H]4O)c(-c4cccc(CC(=O)O)c4)c3)ccc2O[C@H]2O[C@H](CO)[C@@H](O)[C@H](O)[C@@H]2O)c1 [Compound A-5]
1000 | 3000 | 1000 | – | O=C(O)Cc1cccc(-c2cc(C(=O)CCCCC(=O)c3ccc(O[C@H]4O[C@H](CO)[C@@H](O)[C@H](O)[C@@H]4O)c(-c4cccc(CC(=O)O)c4)c3)ccc2O[C@H]2O[C@H](CO)[C@@H](O)[C@H](O)[C@@H]2O)c1 [F]
– | – | 500 | inhibition at 2000 µM (E-selectin; at 2 mM, read-out: E-Selectin % inhib.): 29% | O=C(O)Cc1cccc(-c2cc(CCCSCCCSCCCc3ccc(O[C@H]4O[C@H](CO)[C@@H](O)[C@H](O)[C@@H]4O)c(-c4cccc(CC(=O)O)c4)c3)ccc2O[C@H]2O[C@H](CO)[C@@H](O)[C@H](O)[C@@H]2O)c1 [D]
3270 | 1400 | 540 | – | O=C(O)COc1cccc(-c2cc(CCCCCCc3ccc(O[C@H]4O[C@H](CO)[C@@H](O)[C@H](O)[C@@H]4O)c(-c4cccc(OCC(=O)O)c4)c3)ccc2O[C@H]2O[C@H](CO)[C@@H](O)[C@H](O)[C@@H]2O)c1 [E]
– | – | 1000 | inhibition at 3000 µM (L-selectin; at 3 mM, read-out: L-Selectin % inhib.): 0% | O=C(O)Cc1cccc(-c2cc(CCCC(=O)N3CCC(CCCC4CCN(C(=O)CCCc5ccc(O[C@H]6O[C@H](CO)[C@@H](O)[C@H](O)[C@@H]6O)c(-c6cccc(CC(=O)O)c6)c5)CC4)CC3)ccc2O[C@H]2O[C@H](CO)[C@@H](O)[C@H](O)[C@@H]2O)c1 [G]
– | – | 700 | inhibition at 2000 µM (L-selectin; at 2 mM, read-out: L-Selectin % inhib.): 0% | O=C(O)Cc1cccc(-c2cc(Cc3ccc(Oc4ccc(Cc5ccc(O[C@H]6O[C@H](CO)[C@@H](O)[C@H](O)[C@@H]6O)c(-c6cccc(CC(=O)O)c6)c5)cc4)cc3)ccc2O[C@H]2O[C@H](CO)[C@@H](O)[C@H](O)[C@@H]2O)c1 [C]
– | 2000 | – | – | O=C(O)Cc1cccc(-c2cc(CCCCc3ccc(O[C@H]4O[C@H](CO)[C@@H](O)[C@H](O)[C@@H]4O)c(-c4cccc(CC(=O)O)c4)c3)ccc2O[C@H]2O[C@H](CO)[C@@H](O)[C@H](O)[C@@H]2O)c1 [Compound A-4, 1,4-Bis-[3-(3-carboxymethylphenyl)-4-(2-α-D-mannopyranosyloxy)phenyl]butane]
4000 | 2000 | – | – | O=C(O)Cc1cccc(-c2cc(C(=O)CSCc3cc(CSCC(=O)c4ccc(O[C@H]5O[C@H](CO)[C@@H](O)[C@H](O)[C@@H]5O)c(-c5cccc(CC(=O)O)c5)c4)cc(CSCC(=O)c4ccc(O[C@H]5O[C@H](CO)[C@@H](O)[C@H](O)[C@@H]5O)c(-c5cccc(CC(=O)O)c5)c4)c3)ccc2O[C@H]2O[C@H](CO)[C@@H](O)[C@H](O)[C@@H]2O)c1 [J]
1000 | – | 1000 | – | O=C(O)Cc1cccc(-c2cc(CCCCCCCCCc3ccc(O[C@H]4O[C@H](CO)[C@@H](O)[C@H](O)[C@@H]4O)c(-c4cccc(CC(=O)O)c4)c3)ccc2O[C@H]2O[C@H](CO)[C@@H](O)[C@H](O)[C@@H]2O)c1 [Compound A-9]
2000 | 3000 | 2000 | – | O=C(O)Cc1cccc(-c2cc(Cc3ccc(Cc4ccc(O[C@H]5O[C@H](CO)[C@@H](O)[C@H](O)[C@@H]5O)c(-c5cccc(CC(=O)O)c5)c4)cc3)ccc2O[C@H]2O[C@H](CO)[C@@H](O)[C@H](O)[C@@H]2O)c1 [B-p]
– | 3000 | 220 | inhibition at 1000 µM (E-selectin; at 1 mM, read-out: E-Selectin % inhib.): 0% | O=C(O)Cc1cccc(-c2cc(Cc3cccc(Cc4ccc(O[C@H]5O[C@H](CO)[C@@H](O)[C@H](O)[C@@H]5O)c(-c5cccc(CC(=O)O)c5)c4)c3)ccc2O[C@H]2O[C@H](CO)[C@@H](O)[C@H](O)[C@@H]2O)c1 [B-m]
500 | – | 400 | – | O=C(O)Cc1cccc(-c2cc(CCCCCCCc3ccc(O[C@H]4O[C@H](CO)[C@@H](O)[C@H](O)[C@@H]4O)c(-c4cccc(CC(=O)O)c4)c3)ccc2O[C@H]2O[C@H](CO)[C@@H](O)[C@H](O)[C@@H]2O)c1 [Compound A-7]
